“And” between values parts separate entries of the source, which are not always exact repeats. Equal values may be shown once.
Columns and labels:
[1] = pH change on placing the compound into deionized water of pH 7; type: physicochemical; conditions: simple laboratory experiment
Source text: A simple laboratory experiment confirms this effect. […] However, if icosahedral Ce(NO3)6^2− (note that this ion contains no hydroxide) is placed into deionized water of pH 7, a quite remarkable pH drop to −1 can be observed. The released tetravalent cerium ions will scavenge virtually all of the available OH^− ions in solution (possibly even degrading H2O itself to obtain OH^−), resulting in this dramatic pH drop.

[2] = reduction to the trivalent ion, cited from earlier work; for oxidation-reduction potential: in acid solution (pH 0); for calculated redox potential: in acidic solution, Nugent et al. 1971
[3] = Cyclic Prohesion accelerated corrosion test (ASTM G-85.5) of PVB wash primer containing the pigment, rated by ASTM D-1654; conditions: ASTM D-1654 rating; for G-85 Proc. A: failure at scribe; for G-85 Proc. B: unscribed areas
Method: (§1) The corrosion-inhibiting performance of CeIV pigments was evaluated by incorporating them into primer paint formulations. […] The wash primer is composed of a resin, an acid, a corrosion-inhibiting pigment, powdered talc, and carbon lampblack. The acid content of this wash primer provides a rigorous initial test of the stability and performance of the pigments. Other, more benign, polymer-based binder and resin systems might not separate the compounds based on their performance as effectively or as rapidly.
(§2) PVB was used exclusively throughout testing to avoid preparation and compositional complications during analysis of pigment performance. However, the invention is not limited to the use of PVB.
(§3) A small amount (0.2 g) of powdered talc (magnesium silicate) “filler” was added. Lampblack was not added to these samples. These components were mixed thoroughly by hand and 3.8 grams of phosphoric acid diluent added with further mixing. This rough processing allowed direct comparisons of pigment performance to be made without complications due to powder treatments, modifications, and additives.
(§4) This is not the conventional paint application procedure for aluminum alloys. Under normal service conditions, aluminum alloys are first subjected to a hexavalent chromium-containing conversion coating prior to primer application. However, the conversion coating was omitted so that the performance of the pigment alone could be evaluated and not the synergistic effects of hexavalent chromium (in the conversion coating) or even of barrier films (in the phosphate or anodized coatings).
(§5) This accelerated corrosion test exposes samples to a constant salt-water fog and is a de facto test of solubility for corrosion inhibitors. […] This accelerated corrosion test exposes samples to a cycle of fog of dilute salt and ammonium sulfate at room temperature followed by forced-air drying at an elevated temperature.
(§6) After the paint dried for 24 hours, each plate was scribed with an X and the plate edges were sealed with PVC tape to eliminate corrosion edge effects.
(§7) Two visual observations are associated with this rating test. Procedure A involves a rating of the failure at the scribe—the representative creepage of corrosion away from the scribe. […] In this way, not only the bulk corrosion-inhibiting action of a pigment through the binder can be rated, but also its “throwing power”.

[4] = Static salt fog accelerated corrosion test (ASTM B-117) of PVB wash primer containing the pigment, rated by ASTM D-1654; conditions: ASTM D-1654 rating; for B-117 Proc. A: failure at scribe; for B-117 Proc. B: unscribed areas
Method: as §1, §2, §3, §4, §5, §6, §7

[5] = in water; resulting from the reported solubility product; cited from earlier work
[6] = 2024-T3, 117 h, inhibitor conc. 1.86 × 10^−3 M (25% of Cr), two cells per column
[7] = 7075-T6, 117 h, inhibitor conc. 1.86 × 10^−3 M (25% of Cr), two cells per column
[8] = 2024-T3, 139 h, inhibitor conc. 3.72 × 10^−3 M (50% of Cr), sample and duplicate
[9] = 7075-T6, 139 h, inhibitor conc. 3.72 × 10^−3 M (50% of Cr), sample and duplicate
[10] = 2024-T3, 117 h, inhibitor conc. 7.44 × 10^−4 M (10% of Cr), sample and duplicate
[11] = 7075-T6, 117 h, inhibitor conc. 7.44 × 10^−4 M (10% of Cr), sample and duplicate
[12] = 2024-T3, 139 h, inhibitor conc. 7.44 × 10^−4 M (10% of Cr), sample and duplicate
[13] = 7075-T6, 139 h, inhibitor conc. 7.44 × 10^−4 M (10% of Cr), sample and duplicate
[14] = 2024-T3, 144 h, inhibitor conc. 5.2 × 10^−4 M (7% of Cr), sample and duplicate
[15] = 7075-T6, 144 h, inhibitor conc. 5.2 × 10^−4 M (7% of Cr), sample and duplicate
[16] = 2024-T3, 144 h, inhibitor conc. 3.72 × 10^−3 M (50% of Cr), sample and duplicate
[17] = 7075-T6, 144 h, inhibitor conc. 3.72 × 10^−3 M (50% of Cr), sample and duplicate

## O=[N+]([O-])O.O=[N+]([O-])O.O=[N+]([O-])O.O=[N+]([O-])O.O=[N+]([O-])O.O=[N+]([O-])O.[Ce] [Ce(NO3)6^2−]
[1]
  pH after placing into deionized water of pH 7: −1

## [Ce+4] [Ce^+4]
[2]
  oxidation-reduction potential: 1.72 V

## [Cr+6] [Cr^+6, reference compound]
[2]
  oxidation-reduction potential: 1.36 V

## CCCCCCCC[N+](C)(CCCCCCCC)CCCCCCCC.CCCCCCCC[N+](C)(CCCCCCCC)CCCCCCCC.O=[N+]([O-])[O-].O=[N+]([O-])[O-].O=[N+]([O-])[O-].O=[N+]([O-])[O-].O=[N+]([O-])[O-].O=[N+]([O-])[O-].[Ce+4] [Nitrate/Adogen 464]
[3]; [6]
  G-85 Proc. A: 7
  G-85 Proc. B: 6
[3]; [7]
  G-85 Proc. A: 7
  G-85 Proc. B: 6
[4]; [6]
  B-117 Proc. A: 5
  B-117 Proc. B: 5
[4]; [7]
  B-117 Proc. A: 5
  B-117 Proc. B: 3 and 5

## CCCC[N+](CCCC)(CCCC)CCCC.CCCC[N+](CCCC)(CCCC)CCCC.O=[N+]([O-])[O-].O=[N+]([O-])[O-].O=[N+]([O-])[O-].O=[N+]([O-])[O-].O=[N+]([O-])[O-].O=[N+]([O-])[O-].[Ce+4] [Nitrate/NBu4^+]
[3]; [6]
  G-85 Proc. A: 9
  G-85 Proc. B: 8
[3]; [7]
  G-85 Proc. A: 9
  G-85 Proc. B: 8
[4]; [6]
  B-117 Proc. A: 7
  B-117 Proc. B: 5 and 6
[4]; [7]
  B-117 Proc. A: 7 and 6
  B-117 Proc. B: 6

## CC[N+](CC)(CC)CC.CC[N+](CC)(CC)CC.O=[N+]([O-])[O-].O=[N+]([O-])[O-].O=[N+]([O-])[O-].O=[N+]([O-])[O-].O=[N+]([O-])[O-].O=[N+]([O-])[O-].[Ce+4] [Nitrate/NEt4^+]
[3]; [6]
  G-85 Proc. A: 9 and 10
  G-85 Proc. B: 7 and 8
[3]; [7]
  G-85 Proc. A: 10
  G-85 Proc. B: 8
[4]; [6]
  B-117 Proc. A: 6
  B-117 Proc. B: 3
[4]; [7]
  B-117 Proc. A: 6 and 5
  B-117 Proc. B: 4

## C[N+](C)(C)C.C[N+](C)(C)C.O=[N+]([O-])[O-].O=[N+]([O-])[O-].O=[N+]([O-])[O-].O=[N+]([O-])[O-].O=[N+]([O-])[O-].O=[N+]([O-])[O-].[Ce+4] [Nitrate/NMe4^+]
[3]; [6]
  G-85 Proc. A: 8 and 7
  G-85 Proc. B: 7 and 6
[3]; [7]
  G-85 Proc. A: 8 and 7
  G-85 Proc. B: 7 and 6

## CCCCC[N+](CCCCC)(CCCCC)CCCCC.CCCCC[N+](CCCCC)(CCCCC)CCCCC.O=[N+]([O-])[O-].O=[N+]([O-])[O-].O=[N+]([O-])[O-].O=[N+]([O-])[O-].O=[N+]([O-])[O-].O=[N+]([O-])[O-].[Ce+4] [Nitrate/NPe4^+]
[3]; [6]
  G-85 Proc. A: 9
  G-85 Proc. B: 8
[3]; [7]
  G-85 Proc. A: 9
  G-85 Proc. B: 7
[4]; [6]
  B-117 Proc. A: 6
  B-117 Proc. B: 5
[4]; [7]
  B-117 Proc. A: 6
  B-117 Proc. B: 6

## CCC[N+](CCC)(CCC)CCC.CCC[N+](CCC)(CCC)CCC.O=[N+]([O-])[O-].O=[N+]([O-])[O-].O=[N+]([O-])[O-].O=[N+]([O-])[O-].O=[N+]([O-])[O-].O=[N+]([O-])[O-].[Ce+4] [Nitrate/NPr4^+]
[3]; [6]
  G-85 Proc. A: 9 and 10
  G-85 Proc. B: 8 and 9
[3]; [7]
  G-85 Proc. A: 9 and 8
  G-85 Proc. B: 7
[4]; [6]
  B-117 Proc. A: 7
  B-117 Proc. B: 7 and 6
[4]; [7]
  B-117 Proc. A: 7
  B-117 Proc. B: 6

## [Pr+4] [Pr^+4]
[2]
  calculated redox potential: 3.2 V

## [Tb+4] [Tb^+4]
[2]
  calculated redox potential: 3.2 V

## [Ce+4].[OH-].[OH-].[OH-].[OH-] [ceric hydroxide, reference compound]
[1]
  pH after placing into deionized water of pH 7: only a minor pH change
[5]
  cerium solubility: approximately 5×10^−12 moles/liter Ce^+4

## ammonium 18-vanadatocerate
[3]; [8]
  G-85 Proc. A: 7 and 8
  G-85 Proc. B: 6 and 7
[3]; [9]
  G-85 Proc. A: 8
  G-85 Proc. B: 6 and 7
[4]; [8]
  B-117 Proc. A: 7
  B-117 Proc. B: 6
[4]; [9]
  B-117 Proc. A: 7
  B-117 Proc. B: 6

## calcium 10-tungstocerate
[3]; [10]
  G-85 Proc. A: 7
  G-85 Proc. B: 6
[3]; [11]
  G-85 Proc. A: 7
  G-85 Proc. B: 6
[4]; [10]
  B-117 Proc. A: 3
[4]; [11]
  B-117 Proc. A: 2

## calcium 11-phosphotungstocerate
[3]; [12]
  G-85 Proc. A: 8 and 7
  G-85 Proc. B: 8 and 7
[3]; [13]
  G-85 Proc. A: 6
  G-85 Proc. B: 5 and 6
[4]; [12]
  B-117 Proc. A: 6 and 5
  B-117 Proc. B: 4
[4]; [13]
  B-117 Proc. A: 4
  B-117 Proc. B: 3

## calcium 12-molybdocerate
[3]; [14]
  G-85 Proc. A: 8 and 7
  G-85 Proc. B: 6
[3]; [15]
  G-85 Proc. A: 8 and 7
  G-85 Proc. B: 7 and 5
[4]; [14]
  B-117 Proc. A: 6 and 7
  B-117 Proc. B: 4 and 5
[4]; [15]
  B-117 Proc. A: 7
  B-117 Proc. B: 6

## lithium periodatocerate
[3]; [16]
  G-85 Proc. A: 7
  G-85 Proc. B: 7
[3]; [17]
  G-85 Proc. A: 7
  G-85 Proc. B: 7
[4]; [16]
  B-117 Proc. A: 6 and 5
  B-117 Proc. B: 6 and 5
[4]; [17]
  B-117 Proc. A: 4
  B-117 Proc. B: 2 and 3

## magnesium 10-tungstocerate
[3]; [10]
  G-85 Proc. A: 9
  G-85 Proc. B: 8
[3]; [11]
  G-85 Proc. A: 8
  G-85 Proc. B: 7
[4]; [10]
  B-117 Proc. A: 5
  B-117 Proc. B: 2
[4]; [11]
  B-117 Proc. A: 5 and 4
  B-117 Proc. B: 2

## magnesium 11-phosphotungstocerate
[3]; [12]
  G-85 Proc. A: 7
  G-85 Proc. B: 6
[3]; [13]
  G-85 Proc. A: 7
  G-85 Proc. B: 6
[4]; [12]
  B-117 Proc. A: 6
  B-117 Proc. B: 5
[4]; [13]
  B-117 Proc. A: 5
  B-117 Proc. B: 5

From patent publication US7291217B2, “Non-toxic corrosion-protection pigments based on rare earth elements” (University of Dayton, priority 2002, dated 2007)
